Like-named read-outs stand apart in the source and are kept apart here. Bounds are passed on as bounds.

One test concerns the target T1, human OX1R (Homo sapiens, UniProt O43613).
T1 construct: expressed in transfected cells; host or cells: CHO (Chinese hamster ovary) cells, line CHOOX1R, co-expressing NFAT-luciferase
T1 sequence (O43613 1-425): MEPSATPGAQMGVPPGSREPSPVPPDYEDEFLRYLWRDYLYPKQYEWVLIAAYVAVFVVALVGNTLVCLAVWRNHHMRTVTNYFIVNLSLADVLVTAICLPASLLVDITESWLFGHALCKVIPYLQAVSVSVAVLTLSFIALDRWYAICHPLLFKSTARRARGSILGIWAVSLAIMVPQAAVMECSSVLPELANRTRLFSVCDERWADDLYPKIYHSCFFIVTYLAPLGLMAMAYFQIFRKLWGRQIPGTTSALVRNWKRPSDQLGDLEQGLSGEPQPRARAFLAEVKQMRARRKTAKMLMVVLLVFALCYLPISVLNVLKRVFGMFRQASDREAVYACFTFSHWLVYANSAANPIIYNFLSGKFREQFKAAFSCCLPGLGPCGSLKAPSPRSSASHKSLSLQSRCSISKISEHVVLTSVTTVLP
Put plainly: Agonist activity against OX1R: intracellular calcium (Fura-2AM, FDSS7000) in CHOOX1R cells. The conditions noted are these: for Emax at 0.1 µM / Emax at 1 µM / Emax at 10 µM: read-out: Response (%) OX1R. The test is classed as cell-based. The procedure: (§1) Evaluation of Agonist Activity Against OX1R and OX2R
(§2) NAFT-luciferase gene and human OX1R gene were constitutively expressed in CHO cell, which is a cell line derived from Chinese hamster ovary to establish a cell line (CHOOX1R) and NAFT-luciferase gene and human OX2R gene were constitutively expressed in CHO cell to establish a cell line (CHOOX2R). The respective cells were seeded in a 96-well Multiplate at 10,000 cells/well and cultured in a 5% FBS (Thermo Scientific)-added DMEM medium (Sigma-Aldrich) for 48 hr. The medium was removed, an assay buffer (20 mM HEPES (Sigma-Aldrich), Hanks' balanced salt solution (Gibco), 0.1% BSA (Sigma-Aldrich), 2.5 mM probenecid acid (Wako Pure Chemical Industries, Ltd.)) (100 μL) containing 5 μM Fura-2AM (Cayman Chemical) was added, and the cells were incubated for 60 min. The buffer containing Fura-2AM was removed, and an assay buffer (75 μL) was added. An assay buffer (25 μL) containing a test compound was added thereto to start the reaction. Changes in the intracellular calcium ion concentration due to the reaction were measured by measuring the fluorescence intensity ratio by dual wavelength excitation at 340 and 380 nm, by using FDSS7000 (Hamamatsu Photonics K.K.). The test compound was dissolved in DMSO to 10 mM, and diluted with the assay buffer to a final concentration of 10^−7M to 10^−5M (final concentration of DMSO 1%).
(§3) (As used herein, Response in Table 21 to Table 27 is a value obtained by dividing the agonist activity value, when the test compound is evaluated with orexin-A as a full-agonist (maximum value of agonist activity: 100%), at 10 μM, 1.0 μM, 0.1 μM by the agonist activity value of orexin-A.)
Background: Calcium flux is commonly read through the fluorescence of an indicator in the cells.

Another test addresses T2, human OX2R (Homo sapiens, UniProt O43614).
T2 construct: expressed in transfected cells; host or cells: CHO (Chinese hamster ovary) cells, line CHOOX2R, co-expressing NFAT-luciferase
T2 sequence (O43614 1-444): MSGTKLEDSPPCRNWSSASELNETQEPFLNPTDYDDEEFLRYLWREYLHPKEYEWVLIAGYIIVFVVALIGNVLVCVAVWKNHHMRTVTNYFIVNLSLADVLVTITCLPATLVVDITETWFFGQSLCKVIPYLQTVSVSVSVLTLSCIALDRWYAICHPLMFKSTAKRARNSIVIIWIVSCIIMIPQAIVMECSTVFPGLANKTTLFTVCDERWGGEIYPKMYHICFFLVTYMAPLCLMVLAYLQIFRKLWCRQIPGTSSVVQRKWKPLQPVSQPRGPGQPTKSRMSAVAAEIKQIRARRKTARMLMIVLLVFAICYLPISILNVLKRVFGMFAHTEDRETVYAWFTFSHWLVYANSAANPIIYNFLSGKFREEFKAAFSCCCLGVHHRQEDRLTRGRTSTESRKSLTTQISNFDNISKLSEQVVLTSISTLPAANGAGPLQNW
Put plainly: Agonist activity against OX2R: intracellular calcium (Fura-2AM, FDSS7000) in CHOOX2R cells. Conditions: relative to orexin-A as full agonist (100%). The test is classed as cell-based. The procedure: as §1, §2, §3

The mark [1] stands for this setting: test compound 0.1 μM, relative to orexin-A as full agonist (100%).
Where [2] appears, read: test compound 1.0 μM, relative to orexin-A as full agonist (100%).
Where [3] appears, read: test compound 10 μM, relative to orexin-A as full agonist (100%).
Where [4] appears, read: 0.1 μM test compound, relative to orexin-A as full agonist (100%).
Where [5] appears, read: 1.0 μM test compound, relative to orexin-A as full agonist (100%).
[6] abbreviates: 10 μM test compound, relative to orexin-A as full agonist (100%).

As to `Cc1ccc(-c2cccc(C(=O)N(C)C)c2)cc1S(=O)(=O)Nc1cccc(NC(=O)Nc2cccc(N(C)C)c2)c1` [Example 117], the “Response (%) OX1R” value at human OX1R (setting [1]), on human OX1R (setting [2]) and at human OX1R (setting [3]) was below 5% each time. Further, the “Response (%) OX2R” value at human OX2R (test compound 0.1 μM) is below 5%; on human OX2R (test compound 1.0 μM), 16%; at human OX2R (test compound 10 μM) it was 44%.

As to `COc1cccc(Nc2c(Nc3cccc(NS(=O)(=O)c4cc(-c5cccc(C(=O)N(C)C)c5)ccc4OC)c3)c(=O)c2=O)c1` [Example 82], the “Response (%) OX1R” value at human OX1R (setting [1]) is on record as below 5%; on human OX1R (setting [2]), below 5%; at human OX1R (setting [3]) it was 7%. Besides, the “Response (%) OX2R” value on human OX2R (test compound 0.1 μM) is on record as below 5%; at human OX2R (test compound 1.0 μM), below 5%; on human OX2R (test compound 10 μM), 16%.

On to `COc1ccc(-c2cccc(C(=O)N(C)C)c2)cc1S(=O)(=O)Nc1cccc(NC(=O)Nc2ccccc2N(C)C)c1` [Example 41], for which the “Response (%) OX1R” value at human OX1R (setting [4]), at human OX1R (setting [5]) and at human OX1R (setting [6]) was below 5% each time. Besides, the “Response (%) OX2R” value on human OX2R (0.1 μM test compound) is given as 17%; on human OX2R (1.0 μM test compound), 93%; on human OX2R (10 μM test compound) it was 102%.

As for `COc1ccc(-c2cccc(C(=O)N(C)C)c2)cc1S(=O)(=O)Nc1cccc(N2CCN(c3ccccc3)C2=O)c1` [Example 128, 4′-methoxy-N,N-dimethyl-3′-(N-(3-(2-oxo-3-phenylimidazolidin-1-yl)phenyl)sulfamoyl)-[1,1′-biphenyl]-3-carboxamide], on human OX1R, the Emax at 0.1 µM is below 5%, the Emax at 1 µM is below 5% and the Emax at 10 µM came out at 6%. Further, on human OX2R (test compound 0.1 μM), the “Response (%) OX2R” value was found to be 10%. The “Response (%) OX2R” value on human OX2R (test compound 1.0 μM) was determined as 77%. The “Response (%) OX2R” value on human OX2R (test compound 10 μM) came out at 105%.

In the case of `CCCOc1ccc(-c2cccc(C(=O)N(C)C)c2)cc1S(=O)(=O)Nc1cccc(NC(=O)Nc2cccc(N(C)C)c2)c1` [Example 120], the “Response (%) OX1R” value at human OX1R (setting [1]), on human OX1R (setting [2]) and on human OX1R (setting [3]) was below 5% in each case. In addition, the figures for the “Response (%) OX2R” value on human OX2R (test compound 0.1 μM), on human OX2R (test compound 1.0 μM) and at human OX2R (test compound 10 μM) were 29%, 84% and 103%, respectively.

`COc1ccccc1C(=O)Nc1cccc(NS(=O)(=O)c2cc(-c3cccc(C(=O)N(C)C)c3)ccc2OC)c1` [Example 18]: the results for the “Response (%) OX1R” value on human OX1R (setting [4]), at human OX1R (setting [5]) and on human OX1R (setting [6]) were below 5%, below 5% and 15%, respectively. Further, the “Response (%) OX2R” value at human OX2R (0.1 μM test compound) is on record as below 5%; at human OX2R (1.0 μM test compound) it was 6%; at human OX2R (10 μM test compound) it was 44%.

Take `COc1ccc(-c2cccc(C(=O)N(C)C)c2)cc1S(=O)(=O)Nc1cccc(NC(=O)C[S+]([O-])C(c2ccccc2)c2ccccc2)c1` (stereo not drawn) [Example 13]: the “Response (%) OX1R” value is listed as below 5% at human OX1R (setting [4]), 63% at human OX1R (setting [5]) and 107% on human OX1R (setting [6]). The “Response (%) OX2R” value on human OX2R (0.1 μM test compound) came out at 11%; at human OX2R (1.0 μM test compound), 117%; on human OX2R (10 μM test compound), 109%.

In the case of `COc1ccc(-c2cccc(C(=O)N(C)C)c2)cc1S(=O)(=O)Nc1cccc(NC(=N)Nc2ccccc2)c1` [Example 77, 4′-methoxy-N,N-dimethyl-3′-(N-(3-(3-phenylguanidino)phenyl)sulfamoyl)-[1,1′-biphenyl]-3-carboxamide], the Emax at 0.1 µM on human OX1R (setting [4]) is below 5%. Further, the Emax at 1 µM at human OX1R (setting [5]) was below 5%. Further, the Emax at 10 µM on human OX1R (setting [6]) was below 5%. The “Response (%) OX2R” value at human OX2R (0.1 μM test compound) is below 5%; on human OX2R (1.0 μM test compound), 51%; at human OX2R (10 μM test compound) it was 99%.

For the origin of these results see patent US10351522B2, “Sulfonamide derivative and pharmaceutically acceptable acid addition salt thereof” (UNIVERSITY OF TSUKUBA, priority 2015, dated 2019).
